Measurements as given in patent publication US4094984A, “6-Phenyl-8-bromo-4H-s-triazolo-[3,4C]-thieno-[2,3E]-1,4-diazepines and salts thereof” (Boehringer Ingelheim GmbH, priority 1974, dated 1978).

Columns and labels:
[1] = Toxicity, median lethal dose (Litchfield and Wilcoxon); parameters: species or system Mouse; albino mice (NMRI); details: in vivo, po, mouse; for selectivity ratio: p.o., LD50 over pentylenetetrazole antagonism ED50, read-out: Therap. Index LD50:ED50
Experimental: 5. Toxicity [Litchfield and Wilcoxon, J. Pharmacol. Exp. Therap. 96, 99(1949)]. Determination of median lethal dose (LD50).
(§1) Albino mice (NMRI) having a body weight of 20 to 25 gm or albino rats (FW-49) having a body weight of 140 to 200 gm were used as the test animals, and the test compounds were administered perorally as a suspension in olive oil by means of an esophageal sound.

[2] = tested on: lethal effect of 125 mgm/kg of pentylenetetrazole; assay: Pentetrazole antagonism test (anticonvulsive activity); format: in vivo, Mouse; albino mice (NMRI); details: po, 1 h; mouse; p.o.; 125 mgm/kg pentylenetetrazole i.p. one hour after test compound; values graphically determined
Experimental: (§2) 1. Pentetrazole antagonisim [M. I. Gluckmann, Curr. Ther. Res. 7, 721 (1965)]. The median effective dose (ED50) of the test compound is determined which cancels the lethal effect of 125 mgm/kg of pentylenetetrazole in 50% of the test animals; the pentylenetetrazole is administered intraperitoneally one hour after administration of the test compound.
as §1

[3] = tested on: warm-blooded animals, such as mice and rats; assay: Standard pharmacodynamic test methods (pentetrazole antagonism, electroshock, conflicting situation, fighting test); format: in vivo; details: in words
Experimental: The above-indicated pharmacodynamic properties of the compounds of this invention were ascertained by means of various standard test methods, namely the following:
as §2
2. Electroshock [J. E. P. Tomann et al, J. Neuro-Physiol. 9, 231 (1946)].
3. Conflicting Situation (Inhibition of Passive Avoidance Test) [J. Geller, Arch. Int. Pharmacodyn. 149,243 (1964)].
4. Fighting Test (Suppression of isolation-induced aggressiveness in mice) [Wirth et al; Arch. Int. Pharmcodyn. 115, 1-31 (1958)].
as §1

Row | Compound | LD50 [1] [mg/kg] | selectivity ratio [1] | ED50 [2] [mg/kg] | effectiveness among the compounds of formula I [3]
1 | Cc1nnc2n1-c1sc(Br)cc1C(c1ccccc1F)=NC2 [B, 8-bromo-6-(o-fluorophenyl)-1-methyl-4H-s-triazolo[3,4c]thieno[2,3e]1,4-diazepine] | > 3300 | > 22000 | 0.15 | –
2 | CCc1cc2c(s1)-n1c(C)nnc1CN=C2c1ccccc1Cl [E, 8-ethyl-6-(o-chlorophenyl)-1-methyl-4H-s-triazolo[3,4c]thieno[2,3e]-1,4-diazepine, reference compound] | 3070 | 4390 | 0.7 | –
3 | Cc1nnc2n1-c1sc(Cl)cc1C(c1ccccc1Cl)=NC2 [F, 8-chloro-6-(o-chlorophenyl)-1-methyl-4H-s-triazolo[3,4c]thieno[2,3e]1,4-diazepine, reference compound] | 2300 | 2300 | 1 | –
4 | Cc1nnc2n1-c1sc(Cl)cc1C(c1ccccc1Br)=NC2 [G, 8-chloro-6-(o-bromophenyl)-1-methyl-4H-s-triazolo[3,4c]thieno[2,3e]1,4-diazepine, reference compound] | 2200 | 3140 | 0.7 | –
5 | Cc1nnc2n1-c1sc(Cl)cc1C(c1ccccc1)=NC2 [H, 8-chloro-6-phenyl-1-methyl-4H-s-triazolo[3,4c]thieno[2,3e]1,4-diazepine, reference compound] | – | – | 3 | –
6 | Cc1nnc2n1-c1sc(Br)cc1C(c1ccccc1)=NC2 [D, 8-bromo-6-phenyl-1-methyl-4H-s-triazolo[3,4]thieno[2,3e]1,4-diazepine] | – | – | 0.8 | –
7 | Cc1nnc2n1-c1sc(Br)cc1C(c1ccccc1Cl)=NC2 [A, 8-bromo-6-(o-chlorophenyl)-1-methyl-4H-s-triazolo [3,4c]thieno[2,3e]1,4-diazepine] | > 3500 | > 50000 | 0.07 | particularly effective
8 | Cc1nnc2n1-c1sc(Br)cc1C(c1ccccc1Br)=NC2 [C, 8-bromo-6-(o-bromophenyl)-1-methyl-4H-s-triazolo[3,4c]thieno[2,33]1,4-diazepine] | > 3500 | > 29200 | 0.12 | particularly effective
